melting point | SMILES
238 to 240 °C (dec.) | Cc1cc(SCc2cccc3[nH]c(-c4ccc(C(F)(F)F)cc4)nc23)ccc1OCC(=O)O [Example 85, 2-Methyl-4-[2-(4-trifluoromethylphenyl)-1H-benzoimidazol-4-ylmethylsulfanyl]phenoxyacetic Acid]
192 to 194 °C | Cc1cc(SCc2cccc3c2nc(-c2ccc(C(F)(F)F)cc2)n3C)ccc1OCC(=O)O [Example 89, 2-Methyl-4-[1-methyl-2-(4-trifluoromethylphenyl)-1H-benzoimidazol-4-ylmethylsulfanyl]phenoxyacetic Acid]
178 to 180 °C | CCc1cc(SCc2cccc3c2nc(-c2ccc(C(F)(F)F)cc2)n3C)ccc1OCC(=O)O [Example 91, 2-Ethyl-4-[1-methyl-2-(4-trifluoromethylphenyl)-1H-benzoimidazol-4-ylmethylsulfanyl]phenoxyacetic Acid]

Continued, molecule first:

SMILES | melting point
CC(Sc1ccc2c(CC(=O)O)csc2c1)c1cccc2nc(-c3ccc(C(F)(F)F)cc3)oc12 (racemic) [Example 82, (+/−)-6-{1-[2-(4-Trifluoromethylphenyl)benzooxazol-7-yl]ethylsulfanyl}benzo[b]thiophen-3-ylacetic Acid] | 195 to 198 °C
CCc1cc(SCc2cccc3[nH]c(-c4ccc(C(F)(F)F)cc4)cc23)ccc1OCC(=O)O [Example 94, 2-Ethyl-4-[2-(4-trifluoromethylphenyl)-1H-indol-4-ylmethylsulfanyl]phenoxyacetic Acid] | 174 to 176 °C
Cc1cc(SCCc2cccc3sc(-c4ccc(C(F)(F)F)cc4)nc23)ccc1CCC(=O)O [Example 49, 3-(2-Methyl-4-{2-[2-(4-trifluoromethylphenyl)benzothiazol-4-yl]ethylsulfanyl}phenyl)propionic Acid] | 118 to 120 °C
O=C(O)Cc1csc2cc(SCc3cccc4sc(-c5ccc(C(F)(F)F)cc5)nc34)ccc12 [Example 43] | 168 to 170 °C
Cc1cc(SC(C)(C)c2cccc3nc(-c4ccc(C(F)(F)F)cc4)oc23)ccc1CCC(=O)O [Example 76, 3-(2-Methyl-4-{1-methyl-1-[2-(4-trifluoromethylphenyl)benzooxazol-7-yl]ethylsulfanyl}phenyl)propionic Acid] | 104 to 107 °C
